Source: patent US20130116241A1, “NOVEL INHIBITOR COMPOUNDS OF PHOSPHODIESTERASE TYPE 10A” (AbbVie Inc., priority 2011, published 2013)
Counter-ions that a name gives are not always drawn.

target: human PDE10A (UniProt Q9Y233); experiment: Measurement of PDE activity (recombinant enzyme, HTRF cAMP kit); format: biochemical; conditions: Table 1, substrate 20 nM for PDE10, 60 minutes at 29 C, read-out: IC50
Procedure, shortened: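 HTRF detection of cAMP left after hydrolysis, expressed as percent of uninhibited control to derive IC50. Reaction: serially diluted inhibitor mixed with recombinant enzyme, started with 20 nM cAMP, 60 min at 29 °C in Tris-HCl pH 7.5 buffer containing MgCl2 and BSA.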

Chain of human PDE10A (Q9Y233 290-1055 limits assumed): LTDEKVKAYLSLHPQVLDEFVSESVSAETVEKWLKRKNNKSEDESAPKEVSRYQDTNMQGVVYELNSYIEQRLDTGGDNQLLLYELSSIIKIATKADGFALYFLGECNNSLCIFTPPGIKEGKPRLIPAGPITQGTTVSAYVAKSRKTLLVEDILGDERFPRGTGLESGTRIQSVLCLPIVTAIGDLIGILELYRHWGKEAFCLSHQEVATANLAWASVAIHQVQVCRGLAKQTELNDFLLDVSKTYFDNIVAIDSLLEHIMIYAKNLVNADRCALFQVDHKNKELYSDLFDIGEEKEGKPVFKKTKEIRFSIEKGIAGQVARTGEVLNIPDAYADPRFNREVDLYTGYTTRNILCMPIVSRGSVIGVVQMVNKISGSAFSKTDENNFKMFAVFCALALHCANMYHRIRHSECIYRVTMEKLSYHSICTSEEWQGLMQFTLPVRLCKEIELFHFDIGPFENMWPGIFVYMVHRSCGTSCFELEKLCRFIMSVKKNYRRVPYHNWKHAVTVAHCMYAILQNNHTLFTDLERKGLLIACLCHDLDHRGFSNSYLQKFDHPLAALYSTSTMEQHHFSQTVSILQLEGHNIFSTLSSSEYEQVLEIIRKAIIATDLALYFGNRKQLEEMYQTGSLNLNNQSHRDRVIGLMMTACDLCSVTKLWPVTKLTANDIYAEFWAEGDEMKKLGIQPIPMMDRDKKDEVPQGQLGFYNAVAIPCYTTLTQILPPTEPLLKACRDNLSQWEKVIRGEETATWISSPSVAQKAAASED

`O=c1c2c(-c3ccncc3)cccc2ccn1C1CC1c1ccc2ccccc2n1` (single isomer, unassigned; (+)) [Example 222a, (+) 8-(pyridin-4-yl)-2-(2-(quinolin-2-yl)cyclopropyl)isoquinolin-1(2H)-one] and `O=c1c2c(-c3ccnnc3)cccc2ccn1C1CC1c1ccc2ccccc2n1` (single isomer, unassigned) [Example 236, anti (−) 8-(pyridazin-4-yl)-2-(2-(quinolin-2-yl)cyclopropyl)isoquinolin-1(2H)-one] cannot be ordered by IC50: under 100 nM for the first, under 100 nM for the second.

`O=c1c2ccccc2c(-c2cncnc2)nn1CCc1cn2ccccc2n1` [Example 200, 2-[2-(Imidazo[1,2-a]pyridin-2-yl)ethyl]-4-(pyrimidin-5-yl)phthalazin-1(2H)-one] and `O=c1c2c(-c3cncnc3)cccc2cnn1CCc1cn2ccccc2n1` [Example 168, 2-[2-(Imidazo[1,2-a]pyridin-2-yl)ethyl]-8-(pyrimidin-5-yl)phthalazin-1(2H)-one] cannot be ordered by IC50: under 100 nM for the first, under 100 nM for the second.

First: NCC1CC(Cl)CN1c1cccc2cnn(CCc3cn4ccccc4n3)c(=O)c12 (stereo not shown) [compound 366, trifluoroacetate]
Second: O=c1c2c(N3CC4CCOC4C3)cccc2cnn1CCc1cn2ccccc2n1 (stereo not shown) [compound 374, hydrochloride]
The IC50 of the first is lower: under 100 nM for the first, 200 to 500 nM for the second.

`O=c1c2c(-c3ccncc3)coc2ccn1[C@@H]1C[C@H]1c1ccc2ccccc2n1` (relative stereo) [Example 233, anti 3-(pyridin-4-yl)-5-(2-(quinolin-2-yl)cyclopropyl)furo[3,2-c]pyridin-4(5H)-one] and `O=c1c2c(-c3ccncc3)csc2ccn1C1CC1c1ccc2ccccc2n1` (stereo not shown) [compound 293] cannot be ordered by IC50: under 100 nM for the first, under 100 nM for the second.

First: O=c1c2c(NC3CCOCC3)cccc2cnn1CCc1cn2ccccc2n1 [compound 384, 2-[2-(imidazo[1,2-a]pyridin-2-yl)ethyl]-8-(tetrahydro-2H-pyran-4-ylamino)phthalazin-1(2H)-one]
Second: O=c1c2c(N[C@H]3CCOC3)cccc2cnn1CCc1cn2ccccc2n1 [compound 376, 2-[2-(imidazo[1,2-a]pyridin-2-yl)ethyl]-8-[(3S)-tetrahydrofuran-3-ylamino]phthalazin-1(2H)-one]
The IC50 of the first is higher: 100 to 200 nM for the first, under 100 nM for the second. The second is the more potent here.

First: O=c1c2c(-c3ccc(O)cc3)csc2cnn1CCc1ccc2ccccc2n1 [Example 16, 3-(4-hydroxyphenyl)-5-[2-(quinolin-2-yl)ethyl]thieno[2,3-d]pyridazin-4(5H)-one]
Second: COc1ccc(-c2csc3cnn(CCc4ccc5ccccc5n4)c(=O)c23)cc1 [Example 11, 3-(4-methoxyphenyl)-5-[2-(quinolin-2-yl)ethyl]thieno[2,3-d]pyridazin-4(5H)-one]
The IC50 of the first is lower: under 100 nM for the first, 100 to 200 nM for the second.

Compared with `O=c1c2c(-c3cnc(C4CC4)nc3)cccc2cnn1CCc1cn2ccccc2n1` [compound 343, 8-(2-cyclopropylpyrimidin-5-yl)-2-[2-(imidazo[1,2-a]pyridin-2-yl)ethyl]phthalazin-1(2H)-one], `O=c1c2c(C3CCOCC3)cccc2cnn1CCc1cn2ccccc2n1` [compound 355, 2-[2-(imidazo[1,2-a]pyridin-2-yl)ethyl]-8-(tetrahydro-2H-pyran-4-yl)phthalazin-1(2H)-one] is lower in IC50: 200 to 500 nM for the first, under 100 nM for the second. The second is the more potent here.

`O=c1c2c(N3CCOCC3)cccc2cnn1CCc1cn2ccccc2n1` [Example 174, 2-[2-(Imidazo[1,2-a]pyridin-2-yl)ethyl]-8-(morpholin-4-yl)phthalazin-1(2H)-one] and `O=c1c2c(N[C@@H]3CCNC3)cccc2cnn1CCc1cn2ccccc2n1` [Example 219, 2-[2-(Imidazo[1,2-a]pyridin-2-yl)ethyl]-8-[(3R)-pyrrolidin-3-ylamino]phthalazin-1(2H)-one dihydrochloride] cannot be ordered by IC50: under 100 nM for the first, under 100 nM for the second.

`Cc1ncc(-c2csc3ccn(C4CC4c4ccc5ccccc5n4)c(=O)c23)cn1` (stereo not shown) [compound 284] and `O=c1c2c(-c3cncnc3)csc2ccn1C1CC1c1ccc2ccccc2n1` (stereo not shown) [compound 282] cannot be ordered by IC50: under 100 nM for the first, under 100 nM for the second.

First: O=c1c2c(-c3ccncc3)coc2ccn1CCc1cn2ccccc2n1 [Example 230, 5-(2-(Imidazo[1,2-a]pyridin-2-yl)ethyl)-3-(pyridin-4-yl)furo[3,2-c]pyridin-4(5H)-one hydrochloride]
Second: O=c1c2c(-c3ccncc3)csc2ccn1CCc1cn2ccccc2n1 [Example 210, 5-[2-(Imidazo[1,2-a]pyridin-2-yl)ethyl]-3-(pyridin-4-yl)thieno[3,2-c]pyridin-4(5H)-one hydrochloride]
The IC50 of the first is higher: 100 to 200 nM for the first, under 100 nM for the second.

`O=c1c2c(-c3cncnc3)cccc2c(Cl)cn1C1CC1c1ccc2ccccc2n1` (single isomer, unassigned) [Example 276, anti (−)-4-chloro-8-(pyrimidin-5-yl)-2-(2-(quinolin-2-yl)cyclopropyl)isoquinolin-1(2H)-one] and `O=c1c2c(-c3ccnc(F)c3)cccc2ccn1C1CC1c1ccc2ccccc2n1` (single isomer, unassigned) [Example 238, anti (−) 8-(2-fluoropyridin-4-yl)-2-(2-(quinolin-2-yl)cyclopropyl)isoquinolin-1(2H)-one] cannot be ordered by IC50: under 100 nM for the first, under 100 nM for the second.

`O=c1c2c(-c3cncnc3)csc2cnn1CCc1ccc2ccccc2n1` [Example 37, 3-(pyrimidin-5-yl)-5-[2-(quinolin-2-yl)ethyl]thieno[2,3-d]pyridazin-4(5H)-one] and `Cn1cc(-c2csc3cnn(CCc4ccc5ccccc5n4)c(=O)c23)cn1` [Example 56, 3-(1-methyl-1H-pyrazol-4-yl)-5-[2-(quinolin-2-yl)ethyl]thieno[2,3-d]pyridazin-4(5H)-one] cannot be ordered by IC50: under 100 nM for the first, under 100 nM for the second.

First: COc1ccc(F)c(-c2csc3cnn(CCc4ccc5ccccc5n4)c(=O)c23)c1 [Example 91, 3-(2-fluoro-5-methoxyphenyl)-5-[2-(quinolin-2-yl)ethyl]thieno[2,3-d]pyridazin-4(5H)-one]
Second: COc1cccc(-c2csc3cnn(CCc4ccc5ccccc5n4)c(=O)c23)c1 [Example 26, 3-(3-methoxyphenyl)-5-[2-(quinolin-2-yl)ethyl]thieno[2,3-d]pyridazin-4(5H)-one]
The IC50 of the first is lower: 100 to 200 nM for the first, 200 to 500 nM for the second.

`O=c1c2c(-c3ccncc3)cccc2cnn1[C@@H]1C[C@H]1c1ccc2cc(F)ccc2n1` (relative stereo) [compound 278] and `COc1ccc(-c2cccc3ccn(C4CC4c4ccc5ccccc5n4)c(=O)c23)cc1` (single isomer, unassigned) [Example 270, anti (−) 8-(4-methoxyphenyl)-2-(2-(quinolin-2-yl)cyclopropyl)isoquinolin-1(2H)-one] cannot be ordered by IC50: under 100 nM for the first, under 100 nM for the second.

`Cc1cc2ccccc2nc1CCn1ccc2scc(-c3ccncc3)c2c1=O` [compound 306, 5-[2-(3-methylquinolin-2-yl)ethyl]-3-(pyridin-4-yl)thieno[3,2-c]pyridin-4(5H)-one] and `O=c1c2c(-c3ccncc3)csc2ccn1/C=C/c1ccc2ccccc2n1` [compound 416, 3-(pyridin-4-yl)-5-[(E)-2-(quinolin-2-yl)ethenyl]thieno[3,2-c]pyridin-4(5H)-one] cannot be ordered by IC50: under 100 nM for the first, under 100 nM for the second.

First: O=c1c2c(-c3cc(F)ccc3F)cccc2cnn1CCc1ccc2ccccc2n1 [Example 153, 8-(2,5-Difluorophenyl)-2-[2-(quinolin-2-yl)ethyl]phthalazin-1(2H)-one]
Second: O=c1c2c(-c3cccc(F)c3F)cccc2cnn1CCc1ccc2ccccc2n1 [Example 147, 8-(2,3-Difluorophenyl)-2-[2-(quinolin-2-yl)ethyl]phthalazin-1(2H)-one]
The IC50 of the first is higher: 100 to 200 nM for the first, under 100 nM for the second. The second is the more potent here.

Compared with `O=c1c2c(-c3cccnc3)cccc2cnn1CCc1ccc2ccccc2n1` [Example 126, 8-(Pyridin-3-yl)-2-[2-(quinolin-2-yl)ethyl]phthalazin-1(2H)-one], `CN(C)C(=O)c1cccc(-c2cccc3cnn(CCc4ccc5ccccc5n4)c(=O)c23)c1` [Example 117, N,N-Dimethyl-3-{4-oxo-3-[2-(quinolin-2-yl)ethyl]-3,4-dihydrophthalazin-5-yl}benzamide] is higher in IC50: under 100 nM for the first, 100 to 200 nM for the second. The first is the more potent here.

`O=c1c2c(C#Cc3cccnc3)csc2cnn1CCc1ccc2ccccc2n1` [compound 319, hydrochloride] and `Cn1nccc1-c1csc2cnn(CCc3ccc4ccccc4n3)c(=O)c12` [Example 88, 3-(1-methyl-1H-pyrazol-5-yl)-5-[2-(quinolin-2-yl)ethyl]thieno[2,3-d]pyridazin-4(5H)-one] cannot be ordered by IC50: under 100 nM for the first, under 100 nM for the second.

First: O=c1c2c(-c3cc(F)cc(F)c3)cccc2cnn1CCc1ccc2ccccc2n1 [Example 156, 8-(3,5-Difluorophenyl)-2-[2-(quinolin-2-yl)ethyl]phthalazin-1(2H)-one]
Second: O=c1c2c(-c3ccccc3F)csc2cnn1CCc1ccc2ccccc2n1 [Example 20, 3-(2-fluorophenyl)-5-[2-(quinolin-2-yl)ethyl]thieno[2,3-d]pyridazin-4(5H)-one]
The IC50 of the first is higher: 100 to 200 nM for the first, under 100 nM for the second. The second is the more potent here.

`O=c1c2c(-c3ccc(F)c(F)c3F)csc2cnn1CCc1ccc2ccccc2n1` [Example 60, 5-[2-(quinolin-2-yl)ethyl]-3-(2,3,4-trifluorophenyl)thieno[2,3-d]pyridazin-4(5H)-one] and `Cc1cc(F)ccc1-c1csc2cnn(CCc3ccc4ccccc4n3)c(=O)c12` [Example 62, 3-(4-fluoro-2-methylphenyl)-5-[2-(quinolin-2-yl)ethyl]thieno[2,3-d]pyridazin-4(5H)-one] fall in the same range of IC50: 200 to 500 nM for the first, 200 to 500 nM for the second.

`O=c1c2c(-c3ccncc3)coc2ccn1CCc1ccc2ccccc2n1` [Example 228, 3-(Pyridin-4-yl)-5-(2-(quinolin-2-yl)ethyl)furo[3,2-c]pyridin-4(5H)-one hydrochloride] and `O=c1c2c(-c3cccnc3)csc2ccn1CCc1cn2ccccc2n1` [compound 310, 5-[2-(imidazo[1,2-a]pyridin-2-yl)ethyl]-3-(pyridin-3-yl)thieno[3,2-c]pyridin-4(5H)-one] cannot be ordered by IC50: under 100 nM for the first, under 100 nM for the second.

For `CC(C)Cn1cc(-c2csc3cnn(CCc4ccc5ccccc5n4)c(=O)c23)cn1` [Example 57, 3-[1-(2-methylpropyl)-1H-pyrazol-4-yl]-5-[2-(quinolin-2-yl)ethyl]thieno[2,3-d]pyridazin-4(5H)-one], the IC50 was 200 to 500 nM.
